For 24 compounds, IC50 results are on record in patent US20230203058A1, “MACROCYCLIC DIAMINE DERIVATIVES AS ENT INHIBITORS FOR THE TREATMENT OF CANCERS, AND COMBINATION THEREOF WITH ADENOSINE RECEPTOR ANTAGONISTS” (ITEOS BELGIUM SA, priority 2020, published 2023).

For the assay, the target named is T1, human ENT1 (Homo sapiens, UniProt Q99808).
T1 sequence (Q99808 1-456): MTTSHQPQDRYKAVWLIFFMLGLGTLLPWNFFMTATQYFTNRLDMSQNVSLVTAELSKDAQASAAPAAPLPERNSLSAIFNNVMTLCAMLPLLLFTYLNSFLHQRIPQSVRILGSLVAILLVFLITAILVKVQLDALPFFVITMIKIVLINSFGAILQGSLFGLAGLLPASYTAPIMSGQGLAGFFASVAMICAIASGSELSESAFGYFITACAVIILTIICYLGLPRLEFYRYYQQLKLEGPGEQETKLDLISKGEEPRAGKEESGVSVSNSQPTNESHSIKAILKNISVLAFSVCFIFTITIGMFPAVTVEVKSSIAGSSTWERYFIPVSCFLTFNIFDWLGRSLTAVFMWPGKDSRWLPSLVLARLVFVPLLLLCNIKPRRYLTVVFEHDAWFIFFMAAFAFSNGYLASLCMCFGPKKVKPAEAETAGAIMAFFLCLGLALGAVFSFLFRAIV
As to the kind of experiment: ENT1 binding assay (competition with Sahenta-DY647 on JAR cells). Further details: JAR cells expressing ENT1 were bought from ATCC® (HTB-144TM); host or cells: JAR cells (human choriocarcinoma line; whole cells). The note with it: competition with Sahenta-DY647 100 nM, 4° C. The method, then: The present assay aims at showing that the compounds of the present invention can bind to human ENT1. The principle of the assay is a competition between the compounds of this invention and Sahenta-DY647, an ENT1 inhibitor that emits fluorescence (Ex = 630 nm, Em = 670 nm). By measuring the fluorescence at the end of the assay we could assess the binding potency of the compounds of the present invention.
JAR cells expressing ENT1 were bought from ATCC® (HTB-144TM). Cells were cultured in RPMI 1640 medium (LONZA®, #BE12-702F/U1) supplemented with 10% FBS (GIBCO®, #10270-106), 10 mM Hepes (LONZA®, #BE17-737E), 1 mM Sodium Pyruvate (LONZA®, #BE13-115E) and 2% Penicillin/Streptomycin (LONZA®, #DE17-603E) at 37° C. and 5% CO2. The assay was conducted on the following buffer: HBSS (LONZA®, #LO-527F) supplemented with 10 mM Hepes (LONZA®, #BE17-737E) and 0.1% BSA (Miltenyi®, #130-091-376) on the day of the assay. JAR cells were resuspended in the described buffer. Compounds of the present invention and Sahenta-DY647 were diluted 200X in the described buffer.
A total of 50000 cells were pre-incubated for 30 min at 4° C. with the compounds of the present invention before adding the corresponded IC90 of Sahenta-DY647 (100 nM) and incubate once more for 30 min at 4° C. The total volume of the reaction was 100 µL (50 µL of cells, 25 µL of the compounds of the present invention and 25 µL of Sahenta-DY647) in a 96 well plate, U-bottom (Greiner®, #650-180). The plates were washed 2X by centrifugation (4 min, 400 rcf at 4° C.) in the same buffer. Cells were resuspended in 70 µL of the buffer and 50 µL was transferred to a Black 384 Optiplate (PerkinElmer®, #6007279). Fluorescence (Ex = 630 nm, Em = 670 nm) was acquired on a Spectramax i3x (Molecular Devices®).
In general, IC50 refers to the concentration that inhibits the measured activity by half. The compound `COc1cc2cc(c1OC)OCCC[C@@H](OC(=O)c1ccccc1)CCN(C)CCN(C)CCCOC2=O` [Compound 35, (R)-15,16-dimethoxy-9,12-dimethyl-17-oxo-2,16-dioxa-9,12-diaza-1(1,3)-benzenacycloheptadecaphane-6-yl benzoate] came in with an IC50 of 1 to 20 nM.

`COc1cc2cc(c1OC)OCCCC(O)CCN1CCCN(CCCOC2=O)CC1` (stereo not drawn) [Compound 38, 12-hydroxy-74,75-dimethoxy-5,8-dioxa-1(1,4)-diazepana-7(1,3)-benzenacyclotetradecaphan-6-one] had an IC50 of more than 500 nM.

`COc1cc2cc(c1OC)OCCC[C@H](O)CCN1CCCN(CCCOC2=O)CC1` [Compound 40, (12S)-12-hydroxy-74,75-dimethoxy-5,8-dioxa-1(1,4)-diazepana-7(1,3)-benzenacyclotetradecaphan-6-one] returned an IC50 of more than 500 nM.

Compound `COc1cc2cc(c1OC)OCCCC(OC(=O)c1ccc(O)cc1)CCN1CCCN(CCCOC2=O)CC1` (stereo not drawn) [Compound 41, 74,75-dimethoxy-6-oxo-5,8-dioxa-1(1,4)-diazepana-7(1,3)-benzenacyclotetradecaphane-12-yl 4-hydroxybenzoate] returned an IC50 of 1 to 20 nM.

For the compound `COc1cc2cc(c1OC)OCCCC(OC(=O)c1cccc(C(F)(F)F)c1)CCN1CCCN(CCCOC2=O)CC1` (stereo not drawn) [Compound 44, 74,75-dimethoxy-6-oxo-5,8-dioxa-1(1,4)-diazepana-7(1,3)-benzenacyclotetradecaphane-12-yl 3-(trifluoromethyl)benzoate], the IC50 fell in the range of 1 to 20 nM.

Regarding `COc1cc2cc(c1OC)OCCCC(OC(=O)c1cccc(S(C)(=O)=O)c1)CCN1CCCN(CCCOC2=O)CC1` (stereo not drawn) [Compound 45, 74,75-dimethoxy-6-oxo-5,8-dioxa-1(1,4)-diazepana-7(1,3)-benzenacyclotetradecaphane-12-yl 3-(methylsulfonyl)benzoate], the IC50 lay within 1 to 20 nM.

The compound `COc1cc2cc(c1OC)OCCCC(OC(=O)c1ccccc1F)CCN1CCCN(CCCOC2=O)CC1` (stereo not drawn) [Compound 47, 74,75-dimethoxy-6-oxo-5,8-dioxa-1(1,4)-diazepana-7(1,3)-benzenacyclotetradecaphane-12-yl 2-fluorobenzoate] returned an IC50 of 1 to 20 nM.

Regarding `COc1cc2cc(c1OC)OCCCC(OC(=O)c1ccc(Br)c(C#N)c1)CCN1CCCN(CCCOC2=O)CC1` (stereo not drawn) [Compound 48, 74,75-dimethoxy-6-oxo-5,8-dioxa-1(1,4)-diazepana-7(1,3)-benzenacyclotetradecaphane-12-yl 4-bromo-3-cyanobenzoate], the IC50 was 1 to 20 nM.

`COc1cc2cc(c1OC)OCCCC(OC(=O)c1cc(C)cc(C(F)(F)F)c1)CCN1CCCN(CCCOC2=O)CC1` (stereo not drawn) [Compound 49, 74,75-dimethoxy-6-oxo-5,8-dioxa-1(1,4)-diazepana-7(1,3)-benzenacyclotetradecaphane-12-yl 3-methyl-5-(trifluoromethyl)benzoate] returned an IC50 of 20 to 500 nM.

For `COc1ccc(C(=O)OC2CCCOc3cc(cc(OC)c3OC)C(=O)OCCCN3CCCN(CC2)CC3)c(F)c1` (stereo not drawn) [Compound 50, 74,75-dimethoxy-6-oxo-5,8-dioxa-1(1,4)-diazepana-7(1,3)-benzenacyclotetradecaphane-12-yl 2-fluoro-4-methoxybenzoate], the IC50 fell in the range of 1 to 20 nM.

Compound `COc1ccc(C(=O)OC2CCCOc3cc(cc(OC)c3OC)C(=O)OCCCN3CCCN(CC2)CC3)c(OC(F)(F)F)c1` (stereo not drawn) [Compound 51, 74,75-dimethoxy-6-oxo-5,8-dioxa-1(1,4)-diazepana-7(1,3)-benzenacyclotetradecaphane-12-yl 4-methoxy-2-(trifluoromethoxy)benzoate] gave an IC50 of 20 to 500 nM.

As for `COc1cc2cc(c1OC)OCCCC(OC(=O)c1cccnc1)CCN1CCCN(CCCOC2=O)CC1` (stereo not drawn) [Compound 53, 74,75-dimethoxy-6-oxo-5,8-dioxa-1(1,4)-diazepana-7(1,3)-benzenacyclotetradecaphane-12-yl nicotinate], the IC50 was 1 to 20 nM.

With `COc1cc2cc(c1OC)OCCCC(OC(=O)c1ccc(O)nc1)CCN1CCCN(CCCOC2=O)CC1` (stereo not drawn) [Compound 55, 74,75-dimethoxy-6-oxo-5,8-dioxa-1(1,4)-diazepana-7(1,3)-benzenacyclotetradecaphane-12-yl 6-hydroxynicotinate], the IC50 is 1 to 20 nM.

On to `COc1cc2cc(c1OC)OCCCC(OC(=O)c1cccc3ncccc13)CCN1CCCN(CCCOC2=O)CC1` (stereo not drawn) [Compound 56, 74,75-dimethoxy-6-oxo-5,8-dioxa-1(1,4)-diazepana-7(1,3)-benzenacyclotetradecaphane-12-yl quinoline-5-carboxylate], for which the IC50 is 1 to 20 nM.

As to `COc1cc2cc(c1OC)OCCCC(OC(=O)c1cocn1)CCN1CCCN(CCCOC2=O)CC1` (stereo not drawn) [Compound 57, 74,75-dimethoxy-6-oxo-5,8-dioxa-1(1,4)-diazepana-7(1,3)-benzenacyclotetradecaphane-12-yl oxazole-4-carboxylate], the IC50 is 1 to 20 nM.

`COc1cc2cc(c1OC)OCCCC(OC(=O)CC(C)C)CCN1CCCN(CCCOC2=O)CC1` (stereo not drawn) [Compound 61, 74,75-dimethoxy-6-oxo-5,8-dioxa-1(1,4)-diazepana-7(1,3)-benzenacyclotetradecaphane-12-yl 3-methylbutanoate] came in with an IC50 of 20 to 500 nM.

`COc1cc2cc(c1OC)OCCCC(OC(=O)CCC(F)(F)F)CCN1CCCN(CCCOC2=O)CC1` (stereo not drawn) [Compound 62, 74,75-dimethoxy-6-oxo-5,8-dioxa-1(1,4)-diazepana-7(1,3)-benzenacyclotetradecaphane-12-yl 4,4,4-trifluorobutanoate] registered an IC50 of 1 to 20 nM.

Regarding `COc1cc2cc(c1OC)OCCCC(OC(=O)C1CCCCC1)CCN1CCCN(CCCOC2=O)CC1` (stereo not drawn) [Compound 63, 74,75-dimethoxy-6-oxo-5,8-dioxa-1(1,4)-diazepana-7(1,3)-benzenacyclotetradecaphane-12-yl cyclohexanecarboxylate], the IC50 lay within 1 to 20 nM.

Compound `COc1cc2cc(c1OC)OCCCC(OC(=O)C1CCN(C)CC1)CCN1CCCN(CCCOC2=O)CC1` (stereo not drawn) [Compound 64, 74,75-dimethoxy-6-oxo-5,8-dioxa-1(1,4)-diazepana-7(1,3)-benzenacyclotetradecaphane-12-yl 1-methylpiperidine-4-carboxylate] showed an IC50 of more than 500 nM.

The compound `COc1cc2cc(c1OC)OCCCC(OC(=O)C1CC(C)(C)C1)CCN1CCCN(CCCOC2=O)CC1` (stereo not drawn) [Compound 65, 74,75-dimethoxy-6-oxo-5,8-dioxa-1(1,4)-diazepana-7(1,3)-benzenacyclotetradecaphane-12-yl 3,3-dimethylcyclobutane-1-carboxylate] displayed an IC50 of 20 to 500 nM.

As for `COc1cc2cc(c1OC)OCCCC(OC(=O)CC1COC1)CCN1CCCN(CCCOC2=O)CC1` (stereo not drawn) [Compound 66, 74,75-dimethoxy-6-oxo-5,8-dioxa-1(1,4)-diazepana-7(1,3)-benzenacyclotetradecaphane-12-yl 2-(oxetan-3-yl)acetate], the IC50 was in the range of 1 to 20 nM.

Turning to `COc1cc2cc(c1OC)OCCCC(OC(=O)[C@H]1[C@@H]3COC[C@@H]31)CCN1CCCN(CCCOC2=O)CC1` (stereo partly drawn) [Compound 67, 74,75-dimethoxy-6-oxo-5,8-dioxa-1(1,4)-diazepana-7(1,3)-benzenacyclotetradecaphane-12-yl (1R,5S,6r)-3-oxabicyclo[3.1.0]hexane-6-carboxylate], the IC50 was 20 to 500 nM.

The compound `COc1cc2cc(c1OC)OCCCC(OC(=O)C1CNC(=O)C1)CCN1CCCN(CCCOC2=O)CC1` (stereo not drawn) [Compound 68, 74,75-dimethoxy-6-oxo-5,8-dioxa-1(1,4)-diazepana-7(1,3)-benzenacyclotetradecaphane-12-yl 5-oxopyrrolidine-3-carboxylate] came in with an IC50 of 1 to 20 nM.

Compound `COc1cc2cc(c1OC)OCCCC(OC(=O)C1CC(=O)N(Cc3ccccc3)C1)CCN1CCCN(CCCOC2=O)CC1` (stereo not drawn) [Compound 69, 74,75-dimethoxy-6-oxo-5,8-dioxa-1(1,4)-diazepana-7(1,3)-benzenacyclotetradecaphane-12-yl 1-benzyl-5-oxopyrrolidine-3-carboxylate] registered an IC50 of 1 to 20 nM.
